In one test the target is T1, mouse GPR142 (Mus musculus, UniProt Q7TQN9).
T1 construct: expressed in transfected cells; host or cells: HEK293 (G418-selected)
T1 sequence (Q7TQN9 1-365): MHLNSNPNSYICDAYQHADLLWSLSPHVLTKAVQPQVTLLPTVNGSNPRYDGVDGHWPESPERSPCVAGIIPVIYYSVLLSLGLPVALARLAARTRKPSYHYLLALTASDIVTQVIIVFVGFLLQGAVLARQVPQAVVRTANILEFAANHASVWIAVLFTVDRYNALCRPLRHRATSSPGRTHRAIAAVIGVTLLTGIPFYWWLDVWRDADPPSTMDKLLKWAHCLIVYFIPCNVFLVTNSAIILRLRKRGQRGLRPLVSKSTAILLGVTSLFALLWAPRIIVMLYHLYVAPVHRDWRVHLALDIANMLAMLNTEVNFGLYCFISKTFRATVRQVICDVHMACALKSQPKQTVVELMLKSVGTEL
The experiment in a line: GPR142 agonist effect as measured by IP-1 assay (HTRF), mouse GPR142. It counts as cell-based. The settings on record: HEK293 cells expressing mouse GPR142, IP-1; Mean±SEM, n=5; read-out: EC50 against mouse GPR142 receptor. How it is done: (§1) The purpose of this assay is to detect GPR142 agonist effect.
(§2) HEK293 cells expressing human GPR142 or mouse GPR142 are maintained in Dulbecco's modified Eagle's medium supplemented with 10% FBS and 800 μg/ml G418 (Geneticin®) at 37° C. and 5% CO2. The cells are plated in 384 well plates at 5000 cells per well and allowed 18 hours for attachment. After addition of compounds at varying concentrations ranging from 30 μM to 1 nM, cells are incubated for 1 hour. IP-1 measurements are performed using an IP-One HTRF® assay kit (Cisbio) according to manufacturer's protocol using assay buffer containing 1×HBSS (+Ca, +Mg), 0.1% BSA, 50 mM LiCl and 20 mM HEPES, pH 7.2. The reaction is stopped by addition of IP1-d2 (IP-1 coupled to an organic HTRF acceptor) followed by cryptate solution (http://www.htrf.com/usa/htrf-chemistry) and the plates are incubated at 25° C. for 1 hour. Fluorescence is read in an Envision instrument at 665 nm and 620 nm wavelength. The ratio of 665 nm/620 nm is calculated and converted to IP-1 levels using an IP-1 standard curve. The data is fit to a 4 parameter-fit logistics to determine EC50 values.
A general note: TR-FRET usually uses a lanthanide donor and a delayed reading to cut background.

In another test the target is T2, human GPR142 (Homo sapiens, UniProt Q7Z601).
T2 construct: expressed in transfected cells; host or cells: HEK293 (G418-selected)
T2 sequence (Q7Z601 1-462): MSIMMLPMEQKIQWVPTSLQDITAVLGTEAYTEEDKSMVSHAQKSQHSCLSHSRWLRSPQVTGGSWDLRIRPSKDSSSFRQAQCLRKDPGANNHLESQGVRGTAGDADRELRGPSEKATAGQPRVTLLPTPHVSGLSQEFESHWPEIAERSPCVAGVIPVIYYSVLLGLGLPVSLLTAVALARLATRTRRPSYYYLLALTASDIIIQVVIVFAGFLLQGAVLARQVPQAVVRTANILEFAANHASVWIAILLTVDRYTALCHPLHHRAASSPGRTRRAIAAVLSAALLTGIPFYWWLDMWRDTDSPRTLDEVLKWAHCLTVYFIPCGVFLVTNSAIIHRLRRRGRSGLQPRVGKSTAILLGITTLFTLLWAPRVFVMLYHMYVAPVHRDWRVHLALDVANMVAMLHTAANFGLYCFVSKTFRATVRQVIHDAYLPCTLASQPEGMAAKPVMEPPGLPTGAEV
In words: GPR142 agonist effect as measured by IP-1 assay (HTRF), human GPR142. It counts as cell-based. The note with it: HEK293 cells expressing human GPR142, IP-1, Mean±SEM, n=9. How it is done:
as §1, §2

The target of another test is T3, GPR142 (Mus musculus, UniProt Q7TQN9).
T3 construct: from tissue; host or cells: whole animal, male C57BL/6 mice
T3 sequence (Q7TQN9 1-365): T1 sequence (Q7TQN9 1-365)
The experiment in a line: Intraperitoneal glucose tolerance test (IPGTT). In kind it is in vivo. The settings on record: lean C57BL/6 mice, oral dosing 30 min before glucose challenge. How it is done: IPGTT assay is used to examine the ability of exemplified compounds to activate GPR142 in vivo resulting in anti-diabetic efficacy, i.e. reduction in plasma glucose levels. Male C57BL/6 mice (8-10 weeks of age) are fed normal rodent chow diet and water ad libitum. On the night before the study, animals are fasted overnight in clean cages. On the morning of the study, animals are dosed orally with vehicle or compound at the indicated doses 30 minutes prior to the glucose challenge (2 g/kg) by intraperitoneal injection. Blood glucose levels are determined from tail bleeds taken immediately prior to compound dosing (−30 min) and 0, 15, 30, and 60 min after glucose challenge using handheld glucometers. Plasma is isolated from tail bleeds taken at 7 minutes after glucose challenge and used to determine insulin levels by the Rat/Mouse Insulin Elisa kit (Millipore) or MA6000 Mouse/Rat Insulin Kit (MSD). The blood glucose profile from t=0 to t=60 min is used to calculate an area under the curve (AUC) for each treatment. Percent lowering in glucose AUC is calculated for each treatment group with respect to the AUC of vehicle group. Compounds with a reduction in glucose AUC (P<0.05) is considered positive in the assay.

Structures are written as SMILES.

By EC50 is commonly meant the concentration that produces a half-maximal response. As to `Cc1ncn(C)c1NC(=O)[C@@H]1CCC[C@H](N(C)C(=O)c2cccc(C(F)(F)F)c2)C1` (single isomer, unassigned; isomer 1) [Example 1, Cis-(chiral)-N-[3-[(3,5-Dimethylimidazol-4-yl)carbamoyl]cyclohexyl]-N-methyl-3-(trifluoromethyl)benzamide, isomer 1], the results for the EC50 on mouse GPR142 and at human GPR142 (read-out: EC50 against human GPR142 receptor) were 5.46 nM and 52.6 nM, respectively. At human GPR142, the “efficacy against human GPR142 receptor” value worked out at 105%. The “ED50 in IPGTT” value on GPR142 was found to be 4.2 mpk.

(Values after patent US9861613B2, “GPR142 agonist compounds” (Eli Lilly and Company, priority 2014, dated 2018).)
